Here are results for 23 compounds from patent US11702404B2, “GLP-1R modulating compounds” (priority 2019, dated 2023).

Structures are written as SMILES. Where only a bound is given, the exact number is not on record here.

The nature of data set [1]: Microsomal stability, human liver microsomes (predicted hepatic clearance). The conditions noted are these: predicted from in vitro microsomal stability data.
The target of data set [2] is GLP-1R (Homo sapiens, UniProt P43220). The data set is described as follows: GLP-1R activation: cAMP increase in CHO cells stably expressing GLP-1R. As to conditions: cAMP increase, CHO cells stably expressing GLP-1R, 10 point dose response, 30 minutes incubation; read-out: EC50. Type of data set: cell-based.
GLP-1R, sequence (P43220 24-463): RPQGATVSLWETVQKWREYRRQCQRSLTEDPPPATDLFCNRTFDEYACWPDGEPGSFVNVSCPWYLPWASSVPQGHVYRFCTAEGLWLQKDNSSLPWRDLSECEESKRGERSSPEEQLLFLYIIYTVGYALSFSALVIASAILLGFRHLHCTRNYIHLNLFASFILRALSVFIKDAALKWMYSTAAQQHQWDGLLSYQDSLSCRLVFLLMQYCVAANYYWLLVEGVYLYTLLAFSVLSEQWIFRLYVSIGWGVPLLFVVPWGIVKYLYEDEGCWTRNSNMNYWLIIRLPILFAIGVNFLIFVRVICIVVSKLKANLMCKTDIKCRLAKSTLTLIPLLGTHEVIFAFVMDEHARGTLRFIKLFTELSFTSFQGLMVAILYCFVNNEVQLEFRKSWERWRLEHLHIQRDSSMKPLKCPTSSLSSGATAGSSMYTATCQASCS

In the case of `COCCn1c(Cc2ccc(-c3cccc(OCc4ccc(C#N)c5ccccc45)n3)cc2F)nc2ccc(C(=O)O)cc21` [Example 357, 2-(4-(6-((4-cyanonaphthalen-1-yl)methoxy)pyridin-2-yl)-2-fluorobenzyl)-1-(2-methoxyethyl)-1H-benzo[d]imidazole-6-carboxylic acid], the “Predicted Hepatic Clearance (Pred. Cl.)” value in data set [1] was less than 0.11 L/h/kg. In addition, in data set [2], the EC50 was determined as 56.2 nM.
Regarding `COCCn1c(Cc2ccc(-c3nc(OCc4ccc(C#N)cc4F)ncc3F)cc2F)nc2ccc(C(=O)O)cc21` [Example 358, 2-(4-(2-((4-cyano-2-fluorobenzyl)oxy)-5-fluoropyrimidin-4-yl)-2-fluorobenzyl)-1-(2-methoxyethyl)-1H-benzo[d]imidazole-6-carboxylic], in data set [1], the “Predicted Hepatic Clearance (Pred. Cl.)” value is on record as 0.39 L/h/kg. Also, the EC50 in data set [2] was 33.1 nM.
Regarding `N#Cc1ccc(COc2nccc(-c3ccc(Cc4nc5ccc(C(=O)O)nc5n4CC4(CF)CC4)c(F)c3)n2)c(F)c1` [Example 359, 2-(4-(2-((4-cyano-2-fluorobenzyl)oxy)pyrimidin-4-yl)-2-fluorobenzyl)-3-((1-(fluoromethyl)cyclopropyl)methyl)-3H-imidazo[4,5-b]pyridine-5-carboxylic acid], the “Predicted Hepatic Clearance (Pred. Cl.)” value in data set [1] was less than 0.11 L/h/kg. Besides, the half-maximal effective concentration (EC50) in data set [2] was determined as 3.09 nM.
In the case of `N#Cc1ccc(COc2nccc(-c3ccc(Cc4nc5c(F)cc(C(=O)O)cc5n4CC4(CF)CC4)c(F)c3)n2)c(F)c1` [Example 360, 2-(4-(2-((4-cyano-2-fluorobenzyl)oxy)pyrimidin-4-yl)-2-fluorobenzyl)-4-fluoro-1-((1-(fluoromethyl)cyclopropyl)methyl)-1H-benzo[d]imidazole-6-carboxylic acid], the “Predicted Hepatic Clearance (Pred. Cl.)” value in data set [1] is less than 0.11 L/h/kg. Moreover, the EC50 in data set [2] is 0.94 nM.
Consider `N#Cc1ccc(COc2cccc(-c3ccc(Cc4nc5c(F)cc(C(=O)O)cc5n4CC4(CF)CC4)c(F)c3)n2)c(F)c1` [Example 361, 2-(4-(6-((4-cyano-2-fluorobenzyl)oxy)pyridin-2-yl)-2-fluorobenzyl)-4-fluoro-1-((1-(fluoromethyl)cyclopropyl)methyl)-1H-benzo[d]imidazole-6-carboxylic acid], for which the “Predicted Hepatic Clearance (Pred. Cl.)” value in data set [1] is on record as 0.17 L/h/kg. Moreover, the EC50 in data set [2] turned out to be 0.74 nM.
On to `COCCn1c(Cc2ccc(-c3cccc(OCc4cccc5c4OCO5)n3)cc2F)nc2ccc(C(=O)O)cc21` [Example 362, 2-(4-(6-(benzo[d][1,3]dioxol-4-ylmethoxy)pyridin-2-yl)-2-fluorobenzyl)-1-(2-methoxyethyl)-1H-benzo[d]imidazole-6-carboxylic acid], for which the “Predicted Hepatic Clearance (Pred. Cl.)” value in data set [1] was 0.97 L/h/kg. In addition, the EC50 in data set [2] turned out to be 21.8 nM.
For the compound `COCCn1c(Cc2ccc(-c3cccc(OCc4ccc(C#N)c(F)c4OC)n3)cc2F)nc2ccc(C(=O)O)cc21` [Example 363, 2-(4-(6-((4-cyano-3-fluoro-2-methoxybenzyl)oxy)pyridin-2-yl)-2-fluorobenzyl)-1-(2-methoxyethyl)-1H-benzo[d]imidazole-6-carboxylic acid], in data set [1], the “Predicted Hepatic Clearance (Pred. Cl.)” value is 0.465 L/h/kg. Further, the concentration for a half-maximal effect (EC50) in data set [2] is 8.96 nM.
As to `COCCn1c(Cc2ccc(-c3cccc(OCc4ccc(C#N)cc4F)n3)cc2F)nc2ccc(C(=O)O)c(F)c21` [Example 364, 2-(4-(6-((4-cyano-2-fluorobenzyl)oxy)pyridin-2-yl)-2-fluorobenzyl)-7-fluoro-1-(2-methoxyethyl)-1H-benzo[d]imidazole-6-carboxylic acid], in data set [1], the “Predicted Hepatic Clearance (Pred. Cl.)” value was 0.23 L/h/kg. Besides, the EC50 in data set [2] came to 1.76 nM.
Take `CC1(Cn2c(Cc3ccc(-c4cccc(OCc5ccc(C#N)cc5F)n4)cc3F)nc3ccc(C(=O)O)cc32)CCO1` (stereo not shown) [Example 365, 2-(4-(6-((4-cyano-2-fluorobenzyl)oxy)pyridin-2-yl)-2-fluorobenzyl)-1-((2-methyloxetan-2-yl)methyl)-1H-benzo[d]imidazole-6-carboxylic acid]: the “Predicted Hepatic Clearance (Pred. Cl.)” value in data set [1] is recorded as 0.28 L/h/kg. Moreover, the 50% effective concentration (EC50) in data set [2] came out at 0.6 nM.
Take `COCCn1c(Cc2ccc(-c3cccc(OCc4ccc(C#N)cc4F)n3)cc2F)nc2ccc(C(=O)O)c(Cl)c21` [Example 366, 7-chloro-2-(4-(6-((4-cyano-2-fluorobenzyl)oxy)pyridin-2-yl)-2-fluorobenzyl)-1-(2-methoxyethyl)-1H-benzo[d]imidazole-6-carboxylic acid]: the “Predicted Hepatic Clearance (Pred. Cl.)” value in data set [1] is 0.33 L/h/kg. The 50% effective concentration (EC50) in data set [2] is 20.8 nM.
Consider `COc1cc(C#N)ccc1COc1cccc(-c2ccc(Cc3nc4ccc(C(=O)O)cc4n3CC3(CF)CC3)c(F)c2)n1` [Example 367, 2-(4-(6-((4-cyano-2-methoxybenzyl)oxy)pyridin-2-yl)-2-fluorobenzyl)-1-((1-(fluoromethyl)cyclopropyl)methyl)-1H-benzo[d]imidazole-6-carboxylic acid], for which the “Predicted Hepatic Clearance (Pred. Cl.)” value in data set [1] was 0.65 L/h/kg. For the same compound, the 50% effective concentration (EC50) in data set [2] is 0.86 nM.
Taken in the same sequence, the figures for `COCCn1c(Cc2cc(F)c(-c3ccnc(OCc4ccc(C#N)cc4OC)n3)cc2F)nc2ccc(C(=O)O)cc21` [Example 368, 2-(4-(2-((4-cyano-2-methoxybenzyl)oxy)pyrimidin-4-yl)-2,5-difluorobenzyl)-1-(2-methoxyethyl)-1H-benzo[d]imidazole-6-carboxylic acid] were less than 0.11 L/h/kg and 0.77 nM.
As for `N#Cc1ccc(COc2nccc(-c3ccc(Cc4nc5c(F)cc(C(=O)O)cc5n4C[C@@H]4CCO4)cc3F)n2)c(F)c1` [Example 369, (S)-2-(4-(2-((4-cyano-2-fluorobenzyl)oxy)pyrimidin-4-yl)-3-fluorobenzyl)-4-fluoro-1-(oxetan-2-ylmethyl)-1H-benzo[d]imidazole-6-carboxylic acid], in data set [1], the “Predicted Hepatic Clearance (Pred. Cl.)” value was 0.26 L/h/kg. The EC50 in data set [2] came out at 0.13 nM.
In the case of `CCn1nncc1Cn1c(Cc2ccc(-c3cccc(OCc4ccc(C#N)cc4F)n3)cc2F)nc2ccc(C(=O)O)cc21` [Example 370, 2-(4-(6-((4-cyano-2-fluorobenzyl)oxy)pyridin-2-yl)-2-fluorobenzyl)-1-((l-ethyl-1H-1,2,3-triazol-5-yl)methyl)-1H-benzo[d]imidazole-6-carboxylic acid], the “Predicted Hepatic Clearance (Pred. Cl.)” value in data set [1] is 0.4 L/h/kg. Also, in data set [2], the EC50 stood at 3.34 nM.
With `N#Cc1ccc(COc2cccc(-c3ccc(Cc4nc5ccc(C(=O)O)cc5n4Cc4ncco4)c(F)c3)n2)c(F)c1` [Example 371, 2-(4-(6-((4-cyano-2-fluorobenzyl)oxy)pyridin-2-yl)-2-fluorobenzyl)-1-(oxazol-2-ylmethyl)-1H-benzo[d]imidazole-6-carboxylic acid], in data set [1], the “Predicted Hepatic Clearance (Pred. Cl.)” value was 0.18 L/h/kg. Besides, the EC50 in data set [2] came out at 1.61 nM.
For `COCCn1c(Cc2c(F)cc(-c3cccnc3OC(C)c3ccc(Cl)cc3F)cc2F)nc2ccc(C(=O)O)cc21` (stereo not shown) [Example 372, 2-(4-(2-(1-(4-chloro-2-fluorophenyl)ethoxy)pyridin-3-yl)-2,6-difluorobenzyl)-1-(2-methoxyethyl)-1H-benzo[d]imidazole-6-carboxylic acid], the “Predicted Hepatic Clearance (Pred. Cl.)” value in data set [1] is on record as 0.47 L/h/kg. Further, the EC50 in data set [2] was 243 nM.
Taken in the same sequence, the figures for `COCCn1c(Cc2ccc(-c3cccc(OCc4cccc(=O)n4C)n3)cc2F)nc2ccc(C(=O)O)cc21` [Example 373, 2-(2-fluoro-4-(6-((1-methyl-6-oxo-1,6-dihydropyridin-2-yl)methoxy)pyridin-2-yl)benzyl)-1-(2-methoxyethyl)-1H-benzo[d]imidazole-6-carboxylic acid] were 1.17 L/h/kg and 4770 nM.
Taken in the same sequence, the figures for `COCCn1c(Cc2ccc(-c3cccc(OCc4cccn(C)c4=O)n3)cc2F)nc2ccc(C(=O)O)cc21` [Example 374, 2-(2-fluoro-4-(6-((1-methyl-2-oxo-1,2-dihydropyridin-3-yl)methoxy)pyridin-2-yl)benzyl)-1-(2-methoxyethyl)-1H-benzo[d]imidazole-6-carboxylic acid] were 0.39 L/h/kg and 1930 nM.
Take `N#Cc1ccc(COc2cccc(-c3ccc(Cc4nc5ccc(C(=O)O)cc5n4CC4(CO)CC4)c(F)c3)n2)c(F)c1` [Example 375, 2-(4-(6-((4-cyano-2-fluorobenzyl)oxy)pyridin-2-yl)-2-fluorobenzyl)-1-((1-(hydroxymethyl)cyclopropyl)methyl)-1H-benzo[d]imidazole-6-carboxylic acid]: the “Predicted Hepatic Clearance (Pred. Cl.)” value in data set [1] is on record as 0.255 L/h/kg. Further, in data set [2], the EC50 stood at 5.46 nM.
For `N#CCC1(n2c(Cc3ccc(-c4cccc(OCc5ccc(C#N)cc5F)n4)cc3F)nc3ccc(C(=O)O)cc32)CC1` [Example 376, 2-(4-(6-((4-cyano-2-fluorobenzyl)oxy)pyridin-2-yl)-2-fluorobenzyl)-1-(1-(cyanomethyl)cyclopropyl)-1H-benzo[d]imidazole-6-carboxylic acid], in data set [1], the “Predicted Hepatic Clearance (Pred. Cl.)” value is 0.23 L/h/kg. Besides, in data set [2], the EC50 was 1.53 nM.
Taken in the same sequence, the figures for `COCC1(n2c(Cc3ccc(-c4cccc(OCc5ccc(C#N)cc5F)n4)cc3F)nc3ccc(C(=O)O)cc32)CC1` [Example 377, 2-(4-(6-((4-cyano-2-fluorobenzyl)oxy)pyridin-2-yl)-2-fluorobenzyl)-1-(1-(methoxymethyl)cyclopropyl)-1H-benzo[d]imidazole-6-carboxylic acid] were 0.19 L/h/kg and 10.9 nM.
`COCCn1c(Cc2c(F)cc(-c3ccnc(OCc4ccc(C#N)cc4F)n3)cc2F)nc2ccc(C(=O)O)cc21` [Example 378, 2-(4-(2-((4-cyano-2-fluorobenzyl)oxy)pyrimidin-4-yl)-2,6-difluorobenzyl)-1-(2-methoxyethyl)-1H-benzo[d]imidazole-6-carboxylic acid]: the “Predicted Hepatic Clearance (Pred. Cl.)” value in data set [1] is reported as 0.33 L/h/kg. Besides, the EC50 in data set [2] came to 12.4 nM.
Taken in the same sequence, the figures for `N#Cc1ccc(COc2cccc(-c3ccc(Cc4nc5ccc(C(=O)O)cc5n4CCCF)c(F)c3)n2)c(F)c1` [Example 379, 2-(4-(6-((4-cyano-2-fluorobenzyl)oxy)pyridin-2-yl)-2-fluorobenzyl)-1-(3-fluoropropyl)-1H-benzo[d]imidazole-6-carboxylic acid] were 0.21 L/h/kg and 2.8 nM.

A word on the EC50: it is the concentration needed to bring the measured effect to its halfway point.
